Source: ChEMBL document CHEMBL3885861, “Open TG-GATES”

Species on record: Rattus norvegicus
Test: Open TG-GATES - Regimen: Daily Repeat
Assay type: toxicity, organism-based, Sprague-Dawley
Parameters: regimen Daily Repeat, gender Male, age 6 weeks
Conditions: in vivo, iv, route intravenous injection; for KIDNEY_L / KIDNEY_R / KIDNEY_TOTAL: tissue Kidney; for LIVER: tissue Liver
[1] = 1 mg/kg, 72 h, dose level Low, time 3 day
[2] = 1 mg/kg, 72 h, tissue Blood, dose level Low, time 3 day
[3] = 1 mg/kg, 72 h, tissue Plasma, dose level Low, time 3 day
[4] = 1 mg/kg, […], dose level Low, time 7 day
[5] = 1 mg/kg, […], dose level Low, time 14 day
[6] = 1 mg/kg, […], dose level Low, time 28 day
[7] = 1 mg/kg, […], tissue Blood, dose level Low, time 7 day
[8] = 1 mg/kg, […], tissue Blood, dose level Low, time 14 day
[9] = 1 mg/kg, […], tissue Blood, dose level Low, time 28 day
[10] = 1 mg/kg, […], tissue Plasma, dose level Low, time 7 day
[11] = 1 mg/kg, […], tissue Plasma, dose level Low, time 14 day
[12] = 1 mg/kg, […], tissue Plasma, dose level Low, time 28 day

**Q.** What does the source list for CARBOPLATIN?
**A.** gamma-GTP (0 mg/kg, […], tissue Plasma, dose level Control, time 28 day): 2.2 IU/L; TERMINAL_BW [1]: 215.8 g; APTT [2]: 23.9 s; Bas [2]: 0%; Eos [2]: 0.8%; Fbg [2]: 317.8 mg/dL; Hb [2]: 13 g/dL; Lym [2]: 83%; MCHC [2]: 32.2%; Mono [2]: 2.8%; Neu [2]: 12.6%; PT [2]: 16.2 s; Plat [2]: 122.5 x10_4/uL; RBC [2]: 647.8 x10_4/ul; Ret [2]: 4.5%; WBC [2]: 100.1 x10_2/uL; KIDNEY_L [1]: 0.9 g; KIDNEY_R [1]: 0.9 g; KIDNEY_TOTAL [1]: 1.9 g; LIVER [1]: 9.5 g; ALP [3]: 1749.2 IU/L; ALT [3]: 44.2 IU/L; AST [3]: 72.8 IU/L; BUN [3]: 16.6 mg/dL; CRE [3]: 0.2 mg/dL; DBIL [3]: 0 mg/dL; GLC [3]: 175.8 mg/dL; IP [3]: 6.9 mg/dL; K [3]: 4.6 meq/L; LDH [3]: 189.6 IU/L; PL [3]: 147.8 mg/dL; RALB [3]: 3.1 g/dL; TBIL [3]: 0.004 mg/dL; TC [3]: 76.2 mg/dL; TG [3]: 106.8 mg/dL; TP [3]: 5.5 g/dL; gamma-GTP [3]: 1.4 IU/L; TERMINAL_BW [4]: 248.6 g; TERMINAL_BW [5]: 299.2 g; TERMINAL_BW [6]: 348.7 g; APTT [7]: 22.2 s; Bas [7]: 0%; Eos [7]: 1%; Fbg [7]: 304 mg/dL; Ht [7]: 40.7%; Lym [7]: 80.8%; MCH [7]: 19.9 pg; MCHC [7]: 32.4%; Mono [7]: 2.4%; Plat [7]: 136.3 x10_4/uL; RBC [7]: 662 x10_4/ul; Ret [7]: 4.6%; WBC [7]: 108.6 x10_2/uL; APTT [8]: 26.4 s; Bas [8]: 0%; Eos [8]: 1%; Fbg [8]: 302.2 mg/dL; Hb [8]: 14.1 g/dL; Ht [8]: 42.1%; Lym [8]: 83.2%; MCHC [8]: 33.4%; MCV [8]: 60.3 fL; Mono [8]: 2.5%; Neu [8]: 12%; Plat [8]: 111 x10_4/uL; RBC [8]: 698.8 x10_4/ul; Ret [8]: 3.1%; WBC [8]: 122.2 x10_2/uL; APTT [9]: 24.7 s; Bas [9]: 0%; Eos [9]: 1.2%; Fbg [9]: 311.6 mg/dL; Ht [9]: 42.3%; Lym [9]: 83.2%; MCH [9]: 19.1 pg; MCHC [9]: 35.1%; MCV [9]: 54.4 fL; Mono [9]: 2.6%; Neu [9]: 12%; Plat [9]: 105.6 x10_4/uL; RBC [9]: 777.8 x10_4/ul; Ret [9]: 1.7%; WBC [9]: 94.6 x10_2/uL; KIDNEY_L [4]: 1 g; KIDNEY_R [4]: 1 g; KIDNEY_TOTAL [4]: 2 g; KIDNEY_L [5]: 1.2 g; KIDNEY_R [5]: 1.2 g; KIDNEY_TOTAL [5]: 2.4 g; KIDNEY_L [6]: 1.3 g; KIDNEY_R [6]: 1.3 g; KIDNEY_TOTAL [6]: 2.6 g; LIVER [4]: 11.2 g; LIVER [6]: 13.5 g; ALP [10]: 1760.4 IU/L; ALT [10]: 40.6 IU/L; AST [10]: 75 IU/L; BUN [10]: 16.4 mg/dL; CRE [10]: 0.2 mg/dL; Ca [10]: 11 mg/dL; DBIL [10]: 0 mg/dL; IP [10]: 7.5 mg/dL; K [10]: 4.6 meq/L; LDH [10]: 138.8 IU/L; Na [10]: 140.2 meq/L; PL [10]: 138.2 mg/dL; RALB [10]: 3 g/dL; TBIL [10]: 0.008 mg/dL; TG [10]: 94.6 mg/dL; TP [10]: 5.6 g/dL; gamma-GTP [10]: 2.2 IU/L; ALP [11]: 1603 IU/L; ALT [11]: 38 IU/L; AST [11]: 80.4 IU/L; BUN [11]: 18 mg/dL; CRE [11]: 0.2 mg/dL; DBIL [11]: 0.004 mg/dL; GLC [11]: 171.6 mg/dL; IP [11]: 6.4 mg/dL; K [11]: 4.5 meq/L; LDH [11]: 160 IU/L; PL [11]: 130.2 mg/dL; RALB [11]: 3.1 g/dL; TBIL [11]: 0.01 mg/dL; TC [11]: 64.8 mg/dL; TG [11]: 101.6 mg/dL; TP [11]: 5.9 g/dL; gamma-GTP [11]: 2.6 IU/L; ALP [12]: 1005 IU/L; ALT [12]: 40.4 IU/L; CRE [12]: 0.2 mg/dL; DBIL [12]: 0 mg/dL; GLC [12]: 181 mg/dL; IP [12]: 6 mg/dL; K [12]: 4.2 meq/L; LDH [12]: 140.2 IU/L; PL [12]: 133.8 mg/dL; RALB [12]: 3 g/dL; TBIL [12]: 0.006 mg/dL; TC [12]: 68.8 mg/dL; TG [12]: 102.2 mg/dL; TP [12]: 6 g/dL; gamma-GTP [12]: 2.4 IU/L
